Assay results from PubChem BioAssay AID489033 (Sanford-Burnham Center for Chemical Genomics, 2010).
Active and inactive are the calls of the source. How the calls were made is not given here.

System: 697B B-cell line, NF-kB luciferase reporter luminescence
Assay: inhibitors of B-cell NF-kB luciferase signal – 697B cells, luminescence, selectivity assay for T-cell antigen receptor NF-kB inhibitors, dose response (AID 489033)

Row | SMILES | IC50
1 | CCOC(=O)C1CCN(S(=O)(=O)c2c(Cl)ccc3nonc23)CC1 | 1.06 µM
2 | COc1cc([C@@H]2c3cc4c(cc3[C@H](O)[C@H]3COC(=O)[C@H]23)OCO4)cc(OC)c1OC | > 80 µM (inactive)
3 | COc1cc(C2C(C#N)=C(N)Oc3cc(N(C)C)ccc32)cc2c1OCO2 (centres undefined) | > 80 µM (inactive)
4 | CCN(CC)c1ccc(-c2nn3c(-c4n[nH]c5c4CCC5)nnc3s2)cc1 | > 80 µM (inactive)
5 | CC1Cc2cc(-c3csc(NC(=O)Cc4cccs4)n3)ccc2N1S(C)(=O)=O (centres undefined) | 13.9 µM
6 | COc1cc(-c2noc(C)c2C#Cc2ccsc2)cc(OC)c1OC | 77.7 µM (inactive)
7 | Cc1cc(NC(=O)COC(=O)c2ccc(S(=O)(=O)N3CCCc4ccccc43)cc2)no1 | > 80 µM (inactive)
8 | COc1cccc(/C=N/Nc2ccc(C(=O)O)cc2)c1O | 0.83 µM
9 | Cc1ccc(O)c(NC(=O)CCC2CCCCC2)c1 | > 80 µM (inactive)
10 | CCCCC(=O)NC(c1ccc(Cl)cc1Cl)c1ccc2cccnc2c1O (centres undefined) | > 80 µM (inactive)
11 | Oc1ccccc1N=Nc1nc(-c2ccccc2)c(-c2ccccc2)[nH]1 | 4.55 µM
12 | CCOC(=O)c1[nH]c(C)c(C(=O)Nc2cc(OC)ccc2OC)c1C | > 80 µM (inactive)
13 | COc1ccc(NC(=O)/C(Cl)=C(/Cl)S(=O)Cc2ccccc2)cn1 (centres undefined) | 0.6 µM
14 | CCOc1cccc(-c2nnc3n2N=C(c2cc(OC)ccc2OC)CS3)c1 | > 80 µM (inactive)
15 | O=c1cc(-c2ccccc2)[nH]c2ccccc12 | > 80 µM (inactive)
16 | CC1(C)CC(N2CCN(C(c3ccccc3)c3ccccc3)CC2)=CC(=[N+]2CCCCC2)C1 | 1.64 µM
17 | CCCCc1ccc(NC(=O)C(=O)NCCN2CCN(Cc3ccc([N+](=O)[O-])cc3)CC2)cc1 | > 80 µM (inactive)
18 | Cc1ccc(C(=O)Nc2cccc(C(=O)O)c2)cc1 | 1.7 µM
19 | C=C(C=O)C[C@@H]1C[C@H](O)C2OC3C[C@]4(C)OC5/C=C\CC6OC7C(CC=CCC6OC5CCCC4OC3CC2O1)OC1CC2OC3CC(=O)OC3C[C@@H](C)C[C@@]2(C)OC1C[C@@H]7C (some centres undefined) | 1.02 µM
20 | Cc1cccc(N=Nc2ccc(O)c3ncccc23)c1 | 1.1 µM
21 | COc1ccccc1CNS(=O)(=O)c1ccc(-c2cnc(C3CC3)o2)cc1 | > 80 µM (inactive)
22 | CCCCCCCCC[n+]1cccc2c3ccccc3ccc21 | 1.98 µM
23 | Cn1c(SC2=CS(=O)(=O)c3ccccc32)nc2ccccc21 | 3.54 µM
24 | O=C1C=CCC(/C=C/c2ccccc2)O1 (centres undefined) | 2.18 µM

Row | SMILES | IC50
25 | C/C=C/COC(=O)c1[nH]c2c(c1C)C(=O)CC(c1ccco1)C2 (centres undefined) | > 80 µM (inactive)
26 | COc1ccc(CCN2C(=O)C3C4C=CC(C3C2=O)C2C(=O)N(CCc3ccc(OC)c(OC)c3)C(=O)C42)cc1OC (centres undefined) | > 80 µM (inactive)
27 | Cc1c(C(=O)N2CCOCC2)[nH]c2c1C(=O)CC(c1ccccc1Cl)C2 (centres undefined) | > 80 µM (inactive)
28 | O=C(N/N=C/c1c(O)ccc2ccccc12)c1cccc(C(F)(F)F)c1 | 18.6 µM
29 | CNC[C@@H](CC1CCCCC1)NC[C@H](CC(C)C)NCCc1cccc(C(F)(F)F)c1 | 4.88 µM
30 | CCOC(=O)c1[nH]c2c(c1C)C(=O)CC(c1ccc(F)cc1)C2 (centres undefined) | > 80 µM (inactive)
31 | C[C@@H]1O[C@@H](O[C@H]2C[C@@H](O)[C@]3(CO)[C@@H]4C(CC[C@]3(O)C2)[C@@]2(O)CC[C@H](C3COC(=O)C3)[C@@]2(C)C[C@H]4O)[C@H](O)[C@H](O)[C@H]1O (some centres undefined) | 12.2 µM
32 | Cn1c2c(c(=O)n(C)c1=O)C(C(F)(F)F)(C(F)(F)F)N=C(c1ccc(Cl)cc1)N2 | 1.93 µM
33 | Cc1c(C(=O)N/N=C/c2c(O)ccc3ccccc23)nnn1-c1nonc1N | 34.7 µM (inactive)
34 | Cc1nnc(N/N=C/c2ccccn2)[nH]c1=O | 1.45 µM
35 | Cc1cc(C)c(CN2CCN(C(=O)Cn3cnc4c(OCc5ccccc5)ncnc43)CC2)c(C)c1 | > 80 µM (inactive)
36 | CC1(C)C[C@H]2C=C(C=O)[C@]3(C=O)C[C@]3(C)[C@H]2C1 | 7.97 µM
37 | COc1ccc(-c2c(C#N)c(N)nc3c2CCc2ccccc2-3)cc1OC | 54.4 µM (inactive)
38 | O=C(Nc1nc(-c2ccccc2)cs1)c1ccc(N2CCOCC2)c([N+](=O)[O-])c1 | 6.64 µM
39 | COc1ccc(-n2cc(-c3ccc(C)cc3)[n+]3c2SCC3)cc1 | > 80 µM (inactive)
40 | CCOC(=O)c1[nH]c(C)c(C(=O)Nc2ccccc2C)c1C | 40.3 µM (inactive)
41 | COC(=O)Nc1ccc(S(=O)(=O)N2c3ccccc3CCC2C)cc1 (centres undefined) | > 80 µM (inactive)
42 | CC(C)Oc1ccccc1C1CC(=O)Nc2cc3c(cc21)OCO3 (centres undefined) | > 80 µM (inactive)
43 | COc1cc(C2C(C#N)=C(N)Oc3cc4c(cc32)OCO4)cc(OC)c1OC (centres undefined) | > 80 µM (inactive)
44 | COc1cc(C2C3=C(Nc4ncnn42)c2ccccc2CC3)cc(OC)c1OC (centres undefined) | > 80 µM (inactive)
45 | COc1ccccc1N1CCN(C(=O)c2ccc(-c3ccc(Cl)cc3)o2)CC1 | 66.5 µM (inactive)
46 | CCn1c(C)cc(C(=O)CN2C(=O)c3ccccc3S2(=O)=O)c1C | 0.74 µM
47 | COc1cccc(-c2cc(=O)c3cc(NC(=O)c4ccc(N(C)C)cc4)ccc3[nH]2)c1 | > 80 µM (inactive)
48 | CCC(=O)NC(c1ccc(C)cc1)c1ccc2cccnc2c1O (centres undefined) | > 80 µM (inactive)

Row | SMILES | IC50
49 | O=C(COc1ccc2c(-c3ccccc3)cc(=O)oc2c1)Nc1cccnc1 | > 80 µM (inactive)
50 | C=C(C)[C@@]12OC3(c4ccccc4)O[C@@H]1C1[C@@H]4O[C@]4(CO)[C@@H](O)[C@]4(O)C(=O)C(C)=C[C@H]4[C@@]1(O3)[C@H](C)[C@H]2OC(=O)/C=C/C=C/c1ccccc1 (some centres undefined) | 38.9 µM (inactive)
51 | O=C(COc1ccc(C(=O)c2ccccc2)cc1)NCc1ccc(F)cc1 | > 80 µM (inactive)
52 | Cc1cccc(N(C)S(=O)(=O)c2ccc(-c3cnc(C4CC4)o3)cc2)c1 | > 80 µM (inactive)
53 | CCn1cc(C(=O)NC2CCCc3c2cnn3-c2cccc(C)c2C)cn1 (centres undefined) | > 80 µM (inactive)
54 | O=C(N/N=C\c1c(O)ccc2ccccc12)c1cncc(Br)c1 | > 80 µM (inactive)
55 | C/C=C(\C)C(=O)N[C@@H](c1ccccc1)[C@@H](O)C(=O)O[C@H]1C[C@@]2(O)[C@@H](OC(=O)c3ccccc3)C3[C@](C)(C(=O)[C@H](OC(C)=O)C(=C1C)C2(C)C)[C@@H](O)C[C@H]1OC[C@@]31OC(C)=O (some centres undefined) | > 80 µM (inactive)
56 | Cc1ccc(-c2cc(C(F)F)n3ncc(C(=O)N4CCc5ccccc54)c3n2)cc1 | > 80 µM (inactive)
57 | COc1cc(-c2noc(C)c2-c2ccc3[nH]ccc3c2)cc(OC)c1OC | > 80 µM (inactive)
58 | CCOC(=O)CC1CCCCN1C(=O)c1cc(COc2cccc3cnccc23)on1 (centres undefined) | > 80 µM (inactive)
59 | Cn1cc(C(=O)N/N=C/c2c(O)ccc3ccccc23)ccc1=O | > 80 µM (inactive)
60 | CCCCC(=O)NC(c1ccc(N(C)C)cc1)c1ccc2cccnc2c1O (centres undefined) | > 80 µM (inactive)
61 | CCN(CC)c1ccc(/C=N/NC(=O)c2cccc(S(=O)(=O)Nc3ccccc3OC)c2)c(O)c1 | 3.3 µM
62 | Cc1ccc(-n2ncc3c(N4CCN(c5ccccc5)CC4)ncnc32)c(C)c1 | 5.39 µM
63 | C=C(C)COc1ccc(-c2n[nH]c(C)c2-c2ccc(OC)c(OC)c2)c(O)c1 | 43.3 µM (inactive)
64 | Cc1ccc(NS(=O)(=O)c2ccc(-c3cnc(C4CC4)o3)cc2)c(C)c1 | > 80 µM (inactive)
65 | CCCCCCCCCn1c2c(c(=N)c3c1CCC3)CCC2 | 10.7 µM
66 | O=S(=O)(Nc1cccc2ncccc12)c1cccs1 | 0.34 µM
67 | CCCOc1ccccc1C1CC(=O)Nc2cc3c(cc21)OCO3 (centres undefined) | > 80 µM (inactive)
68 | COc1ccc(C2=Nn3c([n+](C)c4ccccc43)SC2)cc1 | 31 µM (inactive)
69 | COc1ccc(S(=O)(=O)N2N=C(C)Oc3ccccc3C2=O)cc1 | > 80 µM (inactive)
70 | O=C(Nc1cccc2ccccc12)OC1C=CS(=O)(=O)C1 (centres undefined) | 10.7 µM
71 | Cc1ccc(/C=N/NC(=O)c2c(C)nc3ccc(Br)cn23)cc1 | > 80 µM (inactive)
72 | CNC[C@H](CC1CCCCC1)NC[C@H](Cc1ccccc1)NCCC12CC3CC(CC(C3)C1)C2 | 7.73 µM

Row | SMILES | IC50
73 | CSc1nc(N(C)NC(=O)c2cccc(C)c2)c2ccccc2n1 | > 80 µM (inactive)
74 | O=C(Nc1ccncc1)c1ccc(Cl)c(S(=O)(=O)N2CCc3ccccc32)c1 | 61.9 µM (inactive)
75 | CCOC(=O)c1[nH]c(C)c(C(=O)Nc2cc(Cl)ccc2C)c1C | > 80 µM (inactive)
76 | C/C(=N\NC(=O)c1cc(C)nc2ccccc12)c1ccccn1 | 1.23 µM
77 | CCOc1ccc(Nc2cc(C)nc(-n3nc(C)cc3C)n2)cc1 | > 80 µM (inactive)
78 | O=C(c1ccc(CS(=O)c2ccccc2Cl)o1)N1CCN(c2ccccn2)CC1 (centres undefined) | > 80 µM (inactive)
79 | Cc1ccc2c(c1)C=CC(C#N)N2C(=O)c1ccccc1 (centres undefined) | > 80 µM (inactive)
80 | O=Cc1cc2ccccc2nc1SCc1ccc(Cl)c(Cl)c1 | 48.8 µM (inactive)
81 | CC(=O)O[C@H]1C(=O)[C@@]2(C)[C@H]([C@H](OC(=O)c3ccccc3)[C@]3(O)C[C@H](OC(=O)[C@H](O)[C@@H](NC(=O)c4ccccc4)c4ccccc4)C(C)=C1C3(C)C)[C@]1(OC(C)=O)CO[C@@H]1C[C@@H]2O | > 80 µM (inactive)
82 | O=C(Nc1ncc(Cc2ccc(SC(F)F)cc2)s1)c1ccc(OC(F)F)cc1 | > 80 µM (inactive)
83 | COc1ccc(CNC(=O)c2c(C)oc3c2C(=O)c2ccccc2C3=O)cc1 | > 80 µM (inactive)
84 | Nc1nc(Cl)cc(N2CCC(c3cc(-c4ccc(Cl)cc4)n[nH]3)CC2)n1 | 5.28 µM
85 | O=C(Nc1ccc(N2CCCCC2)cc1)c1ccccn1 | 0.41 µM
86 | O=C(O)c1ccc(-c2ccc(-c3ccccc3)cc2)s1 | 2.46 µM
87 | COc1ccc(CNS(=O)(=O)c2cc(-c3cc(C)no3)ccc2C(C)C)cc1 | > 80 µM (inactive)
88 | COc1ccc(CC(=O)Nc2cccc(-c3nnc(-c4cccc(C)c4)o3)c2)cc1OC | 8.4 µM
89 | Cc1cc(C(=O)N2CC=C(c3ccccc3)CC2)c2ccccc2n1 | > 80 µM (inactive)
90 | COc1cc(NS(=O)(=O)c2ccc(OC)c(C)c2C)c(OC)cc1Cl | > 80 µM (inactive)
91 | O=C(Nc1ccc(S(=O)(=O)N2CCN(Cc3ccccc3)CC2)cc1)c1cnccn1 | > 80 µM (inactive)
92 | Cc1csc2ncnc(NC3CCN(Cc4ccccc4)CC3)c12 | 8.31 µM
93 | CCC(C)(C)c1ccc(OCCCC[n+]2cccc(C)c2C)c(C(C)(C)CC)c1 | 16.2 µM
94 | COc1cc(NS(C)(=O)=O)ccc1Nc1c2ccccc2nc2ccccc12 | 15.8 µM
